Measured values reported in patent US7750003B2, “Compounds-943” (AstraZeneca AB, priority 2006, dated 2010).

Biological target: recombinant mTOR (FLAG-tagged, residues 1362-2549) (Homo sapiens, UniProt P42345)
Experiment: In vitro mTOR kinase assay (Test (a), AlphaScreen)
Format: biochemical
Details: ATP 20 μM, read-out: Test (a): IC50 versus mTOR kinase
In short: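 AlphaScreen read-out: a phospho-T389 p70 S6K antibody on acceptor beads captures the phosphorylated biotin-peptide on donor beads, with signal loss indicating inhibition.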

Chain of recombinant mTOR (FLAG-tagged, residues 1362-2549) (P42345 1362-2549): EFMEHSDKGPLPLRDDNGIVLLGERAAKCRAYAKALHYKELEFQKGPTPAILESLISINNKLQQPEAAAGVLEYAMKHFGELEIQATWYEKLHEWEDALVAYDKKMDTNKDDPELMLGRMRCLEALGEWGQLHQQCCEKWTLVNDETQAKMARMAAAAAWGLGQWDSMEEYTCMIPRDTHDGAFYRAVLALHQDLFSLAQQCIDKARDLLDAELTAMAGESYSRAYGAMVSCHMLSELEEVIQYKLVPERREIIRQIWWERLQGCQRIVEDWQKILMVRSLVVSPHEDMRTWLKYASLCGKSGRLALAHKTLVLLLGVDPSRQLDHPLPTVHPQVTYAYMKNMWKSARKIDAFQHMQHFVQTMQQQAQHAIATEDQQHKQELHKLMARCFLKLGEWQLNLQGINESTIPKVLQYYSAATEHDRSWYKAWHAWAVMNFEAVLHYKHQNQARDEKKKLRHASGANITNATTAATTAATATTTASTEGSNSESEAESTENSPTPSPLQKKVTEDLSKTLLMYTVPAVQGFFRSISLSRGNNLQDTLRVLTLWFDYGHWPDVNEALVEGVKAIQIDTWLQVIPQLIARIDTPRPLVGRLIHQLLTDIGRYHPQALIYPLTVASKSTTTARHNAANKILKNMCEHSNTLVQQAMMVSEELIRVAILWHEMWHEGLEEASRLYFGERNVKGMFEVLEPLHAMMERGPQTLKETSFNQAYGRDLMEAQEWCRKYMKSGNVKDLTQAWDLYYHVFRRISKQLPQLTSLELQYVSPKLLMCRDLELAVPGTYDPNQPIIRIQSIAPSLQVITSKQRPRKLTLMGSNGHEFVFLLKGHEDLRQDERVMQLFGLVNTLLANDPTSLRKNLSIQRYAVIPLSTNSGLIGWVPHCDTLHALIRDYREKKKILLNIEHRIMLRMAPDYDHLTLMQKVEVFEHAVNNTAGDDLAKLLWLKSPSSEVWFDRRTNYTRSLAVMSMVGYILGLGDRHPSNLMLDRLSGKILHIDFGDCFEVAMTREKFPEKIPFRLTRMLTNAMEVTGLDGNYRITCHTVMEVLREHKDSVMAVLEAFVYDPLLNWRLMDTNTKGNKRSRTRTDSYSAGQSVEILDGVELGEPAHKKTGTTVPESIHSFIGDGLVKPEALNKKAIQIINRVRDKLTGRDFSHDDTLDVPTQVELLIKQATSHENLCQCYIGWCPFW

How did the IC50 turn out when `CNC(=O)Nc1ccc(-c2nc(CS(=O)(=O)C(C)C)cc(N3CCOC[C@@H]3C)n2)cc1` [Example 19d, 3-methyl-1-[4-[4-[(3S)-3-methylmorpholin-4-yl]-6-(propan-2-ylsulfonylmethyl)pyrimidin-2-yl]phenyl]urea] was run?
Its IC50 is 66 nM.

For `CNC(=O)Nc1ccc(-c2nc(CS(=O)(=O)CCO)cc(N3CCOC[C@@H]3C)n2)cc1` [Example 19e, 1-[4-[4-(2-hydroxyethylsulfonylmethyl)-6-[(3S)-3-methylmorpholin-4-yl]pyrimidin-2-yl]phenyl]-3-methyl-urea], which IC50 is on record?
The IC50 was 11 nM.

For `CNC(=O)Nc1ccc(-c2nc(CS(=O)(=O)c3ccccc3)cc(N3CCOCC3)n2)cc1` [Example 20, 3-[4-[4-(Benzenesulfonylmethyl)-6-morpholin-4-yl-pyrimidin-2-yl]phenyl]-1-methyl-urea], which IC50 is on record?
Its IC50 is 43 nM.

With `CCNC(=O)Nc1ccc(-c2nc(CS(=O)(=O)c3ccccc3)cc(N3CCOCC3)n2)cc1` [Example 20a, 3-[4-[4-(benzenesulfonylmethyl)-6-morpholin-4-yl-pyrimidin-2-yl]phenyl]-1-ethyl-urea] as the compound, how does the IC50 read?
Its IC50 is 150 nM.

Which IC50 does the source give for `O=C(Nc1ccc(-c2nc(CS(=O)(=O)c3ccccc3)cc(N3CCOCC3)n2)cc1)NC1CC1` [Example 20b, 1-[4-[4-(benzenesulfonylmethyl)-6-morpholin-4-yl-pyrimidin-2-yl]phenyl]-3-cyclopropyl-urea] here?
The IC50 was 170 nM.

With `CN(C)CCNC(=O)Nc1ccc(-c2nc(CS(=O)(=O)c3ccccc3)cc(N3CCOCC3)n2)cc1` [Example 20c, 3-[4-[4-(benzenesulfonylmethyl)-6-morpholin-4-yl-pyrimidin-2-yl]phenyl]-1-(2-dimethylaminoethyl)urea] as the compound, how does the IC50 read?
The IC50 was 1000 nM.

With `CN1CCC(NC(=O)Nc2ccc(-c3nc(CS(=O)(=O)c4ccccc4)cc(N4CCOCC4)n3)cc2)CC1` [Example 20d, 3-[4-[4-(benzenesulfonylmethyl)-6-morpholin-4-yl-pyrimidin-2-yl]phenyl]-1-(1-methyl-4-piperidyl)urea] as the compound, how does the IC50 read?
The IC50 was 1600 nM.

Which IC50 does the source give for `COCCNC(=O)Nc1ccc(-c2nc(CS(=O)(=O)c3ccccc3)cc(N3CCOCC3)n2)cc1` [Example 20e, 3-[4-[4-(benzenesulfonylmethyl)-6-morpholin-4-yl-pyrimidin-2-yl]phenyl]-1-(2-methoxyethyl)urea] here?
The IC50 was 2100 nM.

For `CCNC(=O)Nc1ccc(-c2nc(CS(=O)(=O)c3ccccc3)cc(N3CCOC[C@@H]3C)n2)cc1` [Example 20f, 3-[4-[4-(benzenesulfonylmethyl)-6-[(3S)-3-methylmorpholin-4-yl]pyrimidin-2-yl]phenyl]-1-ethyl-urea], which IC50 is on record?
The IC50 was 35 nM.

With `C[C@H]1COCCN1c1cc(CS(=O)(=O)c2ccccc2)nc(-c2ccc(NC(=O)NC3CC3)cc2)n1` [Example 20g, 1-[4-[4-(benzenesulfonylmethyl)-6-[(3S)-3-methylmorpholin-4-yl]pyrimidin-2-yl]phenyl]-3-cyclopropyl-urea] as the compound, how does the IC50 read?
Its IC50 is 39 nM.

How did the IC50 turn out when `C[C@H]1COCCN1c1cc(CS(=O)(=O)c2ccccc2)nc(-c2ccc(NC(=O)NCCN(C)C)cc2)n1` [Example 20h, 1-[4-[4-(benzenesulfonylmethyl)-6-[(3S)-3-methylmorpholin-4-yl]pyrimidin-2-yl]phenyl]-3-(2-dimethylaminoethyl)urea] was run?
Its IC50 is 440 nM.

Which IC50 does the source give for `C[C@H]1COCCN1c1cc(CS(=O)(=O)c2ccccc2)nc(-c2ccc(NC(=O)NC3CCN(C)CC3)cc2)n1` [Example 20i, 1-[4-[4-(benzenesulfonylmethyl)-6-[(3S)-3-methylmorpholin-4-yl]pyrimidin-2-yl]phenyl]-3-(1-methyl-4-piperidyl)urea] here?
The IC50 was 700 nM.

Which IC50 does the source give for `COCCNC(=O)Nc1ccc(-c2nc(CS(=O)(=O)c3ccccc3)cc(N3CCOC[C@@H]3C)n2)cc1` [Example 20j, 1-[4-[4-(benzenesulfonylmethyl)-6-[(3S)-3-methylmorpholin-4-yl]pyrimidin-2-yl]phenyl]-3-(2-methoxyethyl)urea] here?
Its IC50 is 750 nM.

How did the IC50 turn out when `CNC(=O)Nc1ccc(-c2nc(CS(=O)(=O)C(C)C)cc(N3CCOCC3)n2)cc1` [Example 20k, 3-methyl-1-[4-[4-morpholin-4-yl-6-(propan-2-ylsulfonylmethyl)pyrimidin-2-yl]phenyl]urea] was run?
Its IC50 is 36 nM.

For `CCNC(=O)Nc1ccc(-c2nc(CS(=O)(=O)C(C)C)cc(N3CCOCC3)n2)cc1` [Example 20l, 1-ethyl-3-[4-[4-morpholin-4-yl-6-(propan-2-ylsulfonylmethyl)pyrimidin-2-yl]phenyl]urea], which IC50 is on record?
The IC50 was 74 nM.

How did the IC50 turn out when `CC(C)S(=O)(=O)Cc1cc(N2CCOCC2)nc(-c2ccc(NC(=O)NC3CC3)cc2)n1` [Example 20m, 3-cyclopropyl-1-[4-[4-morpholin-4-yl-6-(propan-2-ylsulfonylmethyl)pyrimidin-2-yl]phenyl]urea] was run?
Its IC50 is 81 nM.

How did the IC50 turn out when `CC(C)S(=O)(=O)Cc1cc(N2CCOCC2)nc(-c2ccc(NC(=O)NCCN(C)C)cc2)n1` [Example 20n, 3-(2-dimethylaminoethyl)-1-[4-[4-morpholin-4-yl-6-(propan-2-ylsulfonylmethyl)pyrimidin-2-yl]phenyl]urea] was run?
The IC50 was 860 nM.

How did the IC50 turn out when `CC(C)S(=O)(=O)Cc1cc(N2CCOCC2)nc(-c2ccc(NC(=O)NC3CCN(C)CC3)cc2)n1` [Example 20o, 3-(1-methyl-4-pipendyl)-1-[4-[4-morpholin-4-yl-6-(propan-2-ylsulfonylmethyl)pyrimidin-2-yl]phenyl]urea] was run?
The IC50 was 1300 nM.

`COCCNC(=O)Nc1ccc(-c2nc(CS(=O)(=O)C(C)C)cc(N3CCOCC3)n2)cc1` [Example 20p, 3-(2-methoxyethyl)-1-[4-[4-morpholin-4-yl-6-(propan-2-ylsulfonylmethyl)pyrimidin-2-yl]phenyl]urea] was tested. Which IC50 did it give?
Its IC50 is 910 nM.

With `CCNC(=O)Nc1ccc(-c2nc(CS(=O)(=O)C(C)C)cc(N3CCOC[C@@H]3C)n2)cc1` [Example 20q, 1-ethyl-3-[4-[4-[(3S)-3-methylmorpholin-4-yl]-6-(propan-2-ylsulfonylmethyl)pyrimidin-2-yl]phenyl]urea] as the compound, how does the IC50 read?
Its IC50 is 39 nM.

For `CC(C)S(=O)(=O)Cc1cc(N2CCOC[C@@H]2C)nc(-c2ccc(NC(=O)NC3CC3)cc2)n1` [Example 20r, 3-cyclopropyl-1-[4-[4-[(3S)-3-methylmorpholin-4-yl]-6-(propan-2-ylsulfonylmethyl)pyrimidin-2-yl]phenyl]urea], which IC50 is on record?
The IC50 was 94 nM.

`CC(C)S(=O)(=O)Cc1cc(N2CCOC[C@@H]2C)nc(-c2ccc(NC(=O)NCCN(C)C)cc2)n1` [Example 20s, 3-(2-dimethylaminoethyl)-1-[4-[4-[(3S)-3-methylmorpholin-4-yl]-6-(propan-2-ylsulfonylmethyl)pyrimidin-2-yl]phenyl]urea] was tested. Which IC50 did it give?
Its IC50 is 620 nM.

How did the IC50 turn out when `CC(C)S(=O)(=O)Cc1cc(N2CCOC[C@@H]2C)nc(-c2ccc(NC(=O)NC3CCN(C)CC3)cc2)n1` [Example 20t, 1-[4-[4-[(3S)-3-methylmorpholin-4-yl]-6-(propan-2-ylsulfonylmethyl)pyrimidin-2-yl]phenyl]-3-(1-methyl-4-piperidyl)urea] was run?
The IC50 was 600 nM.

For `COCCNC(=O)Nc1ccc(-c2nc(CS(=O)(=O)C(C)C)cc(N3CCOC[C@@H]3C)n2)cc1` [Example 20u, 3-(2-methoxyethyl)-1-[4-[4-[(3S)-3-methylmorpholin-4-yl]-6-(propan-2-ylsulfonylmethyl)pyrimidin-2-yl]phenyl]urea], which IC50 is on record?
The IC50 was 270 nM.

With `CNC(=O)Nc1ccc(-c2nc(N3CCOCC3)cc(C(C)(C)S(C)(=O)=O)n2)cc1` [Example 21, 3-Methyl-1-[4-[4-(2-methylsulfonylpropan-2-yl)-6-morpholin-4-yl-pyrimidin-2-yl]phenyl]urea] as the compound, how does the IC50 read?
The IC50 was 50 nM.

Which IC50 does the source give for `CCNC(=O)Nc1ccc(-c2nc(N3CCOCC3)cc(C(C)(C)S(C)(=O)=O)n2)cc1` [Example 21a, 1-ethyl-3-[4-[4-(2-methylsulfonylpropan-2-yl)-6-morpholin-4-yl-pyrimidin-2-yl]phenyl]urea] here?
The IC50 was 730 nM.

With `CC(C)(c1cc(N2CCOCC2)nc(-c2ccc(NC(=O)NC3CC3)cc2)n1)S(C)(=O)=O` [Example 21b, 3-cyclopropyl-1-[4-[4-(2-methylsulfonylpropan-2-yl)-6-morpholin-4-yl-pyrimidin-2-yl]phenyl]urea] as the compound, how does the IC50 read?
Its IC50 is 360 nM.

With `CN(C)CCNC(=O)Nc1ccc(-c2nc(N3CCOCC3)cc(C(C)(C)S(C)(=O)=O)n2)cc1` [Example 21c, 3-(2-dimethylaminoethyl)-1-[4-[4-(2-methylsulfonylpropan-2-yl)-6-morpholin-4-yl-pyrimidin-2-yl]phenyl]urea] as the compound, how does the IC50 read?
Its IC50 is 480 nM.

With `CN1CCC(NC(=O)Nc2ccc(-c3nc(N4CCOCC4)cc(C(C)(C)S(C)(=O)=O)n3)cc2)CC1` [Example 21d, 3-(1-methyl-4-piperidyl)-1-[4-[4-(2-methylsulfonylpropan-2-yl)-6-morpholin-4-yl-pyrimidin-2-yl]phenyl]urea] as the compound, how does the IC50 read?
The IC50 was 270 nM.

With `COCCNC(=O)Nc1ccc(-c2nc(N3CCOCC3)cc(C(C)(C)S(C)(=O)=O)n2)cc1` [Example 21e, 3-(2-methoxyethyl)-1-[4-[4-(2-methylsulfonylpropan-2-yl)-6-morpholin-4-yl-pyrimidin-2-yl]phenyl]urea] as the compound, how does the IC50 read?
Its IC50 is 1000 nM.

How did the IC50 turn out when `CNC(=O)Nc1ccc(-c2nc(N3CCOC[C@@H]3C)cc(C(C)(C)S(C)(=O)=O)n2)cc1` [Example 21f, 3-methyl-1-[4-[4-[(3S)-3-methylmorpholin-4-yl]-6-(2-methylsulfonylpropan-2-yl)pyrimidin-2-yl]phenyl]urea] was run?
Its IC50 is 17 nM.

For `CCNC(=O)Nc1ccc(-c2nc(N3CCOC[C@@H]3C)cc(C(C)(C)S(C)(=O)=O)n2)cc1` [Example 21g, 1-ethyl-3-[4-[4-[(3S)-3-methylmorpholin-4-yl]-6-(2-methylsulfonylpropan-2-yl)pyrimidin-2-yl]phenyl]urea], which IC50 is on record?
The IC50 was 20 nM.

How did the IC50 turn out when `C[C@H]1COCCN1c1cc(C(C)(C)S(C)(=O)=O)nc(-c2ccc(NC(=O)NCCN(C)C)cc2)n1` [Example 21i, 3-(2-dimethylaminoethyl)-1-[4-[4-[(3S)-3-methylmorpholin-4-yl]-6-(2-methylsulfonylpropan-2-yl)pyrimidin-2-yl]phenyl]urea] was run?
Its IC50 is 76 nM.

For `C[C@H]1COCCN1c1cc(C(C)(C)S(C)(=O)=O)nc(-c2ccc(NC(=O)NC3CCN(C)CC3)cc2)n1` [Example 21j, 1-[4-[4-[(3S)-3-methylmorpholin-4-yl]-6-(2-methylsulfonylpropan-2-yl)pyrimidin-2-yl]phenyl]-3-(1-methyl-4-piperidyl)urea], which IC50 is on record?
Its IC50 is 510 nM.
